# According to PMC9698483, “Berbamine Reduces Chloroquine-Induced Itch in Mice through Inhibition of MrgprX1” (International Journal of Molecular Sciences, 2022):
# Tests used:
# Type in all cases: cell-based
# MrgprA3 = target: T1, MrgprA3 (Mus musculus, UniProt Q91WW3); test: Intracellular calcium measurement in HEK293T cells expressing mouse MrgprA3; details: pretreated 10 min prior to 300 μM CQ; read-out: IC50 of inhibition of CQ-induced MrgprA3 activation
# T1 construct: expressed in transfected cells; host or cells: HEK293T
# T1 sequence (Q91WW3 1-302): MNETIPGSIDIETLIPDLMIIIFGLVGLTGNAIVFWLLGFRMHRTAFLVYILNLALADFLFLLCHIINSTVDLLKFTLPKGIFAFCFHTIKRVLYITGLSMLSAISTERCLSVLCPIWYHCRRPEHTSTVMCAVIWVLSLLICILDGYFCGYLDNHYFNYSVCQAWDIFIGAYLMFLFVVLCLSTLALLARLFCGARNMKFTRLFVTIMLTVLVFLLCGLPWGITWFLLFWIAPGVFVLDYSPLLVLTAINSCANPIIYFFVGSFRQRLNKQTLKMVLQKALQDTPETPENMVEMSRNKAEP
# Method: MRGPRA3 and MRGPRC11 are mouse orthologs of human MRGPRX1, and MrgprA3 is also activated by CQ, resulting in CQ-induced pruritus. To investigate the inhibitory effect of berbamine on MrgprA3, we established HEK293T cells overexpressing MrgprA3. […] We further investigated whether berbamine inhibited CQ-induced ERK1/2 phosphorylation in HEK-MrgprA3 cells. Strong and significant ERK1/2 phosphorylation was observed following CQ application, and ERK1/2 phosphorylation peaked 5 min after CQ treatment (Figure 6A,B).
# Figure 5 Effect of berbamine on CQ-induced activation of MrgprA3: (A) Intracellular calcium levels were measured in HEK293T cells expressing mouse MrgprA3. Cells were treated with indicated concentrations of CQ. (B) Summary of dose–response (mean ± S.E., n = 6). (C) Cells were pretreated with indicated concentrations of berbamine for 10 min prior to 300 μM CQ treatment. (D) Summary of dose-response (mean ± S.E., n = 6). (E) Representative traces of intracellular calcium responses to BAM8−22 in HEK293T cells expressing MrgprC11. […]
# Intracellular calcium levels were measured using a Fluo-4 NW calcium assay kit (Invitrogen, Carlsbad, CA) as per the manufacturer’s protocol in HEK293T and HT29 cells. […] After 1 h of incubation, Fluo-4 fluorescence was recorded with a FLUOstar Omega microplate reader equipped with syringe pumps and custom Fluo-4 excitation/emission filters (485/538 nm). […]
# [1] = target: T2, histamine H4 receptor (H4R) (Homo sapiens, UniProt Q9H3N8); test: Histamine-induced activation of H4R in H4R-expressing HEK293T cells (calcium); details: 30 μM compound, 10 min prior to 100 μM histamine
# T2 construct: expressed in transfected cells; host or cells: HEK293T
# Method: (§1) To investigate the effect of berbamine on other pruritogenic GPCRs, we observed the effect of berbamine on histamine H1 receptor (H1R), histamine H4 receptor (H4R), MrgprC11, MrgprX4, PAR2, and TGR5.
# (§2) Figure 3 Effects of berbamine on the activity of other pruritogenic GPCRs: (A,B) Effect of berbamine on histamine 1 receptor (H1R) and histamine 4 receptor (H4R). H1R- and H4R-expressing HEK293T cells were pretreated with 30 μM BBM for 10 min prior to 100 μM histamine treatment. […] (C) Effect of berbamine on PAR2. HT29 cells were pretreated with BBM for 10 min prior to 30 μM PAR2-AP treatment. […] (D) Effect of berbamine on MrgprC11. MrgprC11-expressing HEK293T cells were pretreated with BBM for 10 min prior to 100 μM […] treatment. (E) Effect of berbamine on MrgprX4. MrgprX4-expressing HEK293T cells were pretreated with BBM for 10 min prior to 80 μM DCA treatment. (F) Effect of berbamine on TGR5. TGR5 activity was measured using a YFP fluorescence quenching assay. CHO-K1 cells coexpressing TGR5 and a halide sensor YFP were pretreated with BBM and 80 μM DCA for 10 min prior to I^- treatment. Results were summarized as means ± S.E. (n = 6). NTC, nontransfected cells.
# (§3) Intracellular calcium levels were measured using a Fluo-4 NW calcium assay kit (Invitrogen, Carlsbad, CA) as per the manufacturer’s protocol in HEK293T and HT29 cells. […]
# PAR2 = target: T3, PAR2 (Homo sapiens, UniProt P55085); test: PAR2-AP-induced activation of PAR2 in HT29 cells (calcium); details: 30 μM compound, 10 min prior to 30 μM PAR2-AP
# T3 construct: endogenous in cells; host or cells: HT29
# T3 sequence (P55085 26-397): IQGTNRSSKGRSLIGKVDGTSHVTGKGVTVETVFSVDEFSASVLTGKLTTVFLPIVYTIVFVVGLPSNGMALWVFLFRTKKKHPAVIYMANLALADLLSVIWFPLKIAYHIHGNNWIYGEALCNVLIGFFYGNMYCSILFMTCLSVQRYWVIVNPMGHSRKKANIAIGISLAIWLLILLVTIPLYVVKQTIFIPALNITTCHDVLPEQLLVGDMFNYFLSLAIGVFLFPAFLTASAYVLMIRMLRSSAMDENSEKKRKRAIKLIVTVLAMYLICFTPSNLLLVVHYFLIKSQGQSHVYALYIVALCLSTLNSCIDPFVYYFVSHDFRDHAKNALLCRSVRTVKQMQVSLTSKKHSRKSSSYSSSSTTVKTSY
# Method: as §1, §2, §3
# T2 sequence (Q9H3N8 whole entry, species assumed): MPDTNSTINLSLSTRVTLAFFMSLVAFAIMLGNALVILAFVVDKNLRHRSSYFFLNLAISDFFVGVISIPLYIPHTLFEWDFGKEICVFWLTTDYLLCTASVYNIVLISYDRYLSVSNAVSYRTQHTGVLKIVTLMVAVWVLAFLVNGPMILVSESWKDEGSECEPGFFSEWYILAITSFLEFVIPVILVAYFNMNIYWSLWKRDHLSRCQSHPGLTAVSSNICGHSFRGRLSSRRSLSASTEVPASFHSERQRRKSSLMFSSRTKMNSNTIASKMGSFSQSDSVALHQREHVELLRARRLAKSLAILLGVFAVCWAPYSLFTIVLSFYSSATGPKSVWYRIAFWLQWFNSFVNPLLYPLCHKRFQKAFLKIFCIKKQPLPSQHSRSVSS
structure (smiles),measurement,setting,value
COc1cc2c3cc1Oc1c(OC)c(OC)cc4c1[C@@H](Cc1ccc(O)c(c1)Oc1ccc(cc1)C[C@@H]3N(C)CC2)N(C)CC4 [berbamine],IC50,MrgprA3,2.9 µM
same,effect on histamine-induced activation of H4R,[1],did not affect
same,effect on PAR2-AP-induced activation of PAR2,PAR2,did not affect
